What was measured:
[1] = Cmax in CD1 mouse plasma assessed as baloxavir acid level at 15 mg/kg, po administered as single dose measured up to 24 hrs by LC-MS/MS analysis; assay type: ADME, organism-based; set-up: dose 15 mg/kg, route oral; conditions: in vivo
[2] = Half life in CD1 mouse liver assessed as baloxavir acid level at 15 mg/kg, po administered as single dose measured up to 24 hrs by LC-MS/MS analysis; assay type: ADME, organism-based; conditions: in vivo
[3] = Elimination rate constant in CD1 mouse kidney assessed as baloxavir acid level at 15 mg/kg, po administered as single dose measured up to 24 hrs by LC-MS/MS analysis; assay type: ADME, organism-based; conditions: in vivo
[4] = Half life in CD1 mouse kidney assessed as baloxavir acid level at 15 mg/kg, po administered as single dose measured up to 24 hrs by LC-MS/MS analysis; assay type: ADME, organism-based; conditions: in vivo
[5] = Cmax in CD1 mouse kidney assessed as baloxavir acid level at 15 mg/kg, po administered as single dose measured up to 24 hrs by LC-MS/MS analysis; assay type: ADME, organism-based; set-up: dose 15 mg/kg, route oral; conditions: in vivo
[6] = AUCinfinity in CD1 mouse kidney assessed as baloxavir acid level at 15 mg/kg, po administered as single dose measured up to 24 hrs by LC-MS/MS analysis; assay type: ADME, organism-based; set-up: dose 15 mg/kg, time infinity, route oral; conditions: in vivo
[7] = Tmax in CD1 mouse heart assessed as baloxavir acid level at 15 mg/kg, po administered as single dose measured up to 24 hrs by LC-MS/MS analysis; assay type: ADME, organism-based; conditions: in vivo
[8] = Cmax in CD1 mouse brain assessed as baloxavir acid level at 15 mg/kg, po administered as single dose measured up to 24 hrs by LC-MS/MS analysis; assay type: ADME, organism-based; set-up: dose 15 mg/kg, route oral; conditions: in vivo
[9] = Cmax in CD1 mouse spleen assessed as baloxavir acid level at 15 mg/kg, po administered as single dose measured up to 24 hrs by LC-MS/MS analysis; assay type: ADME, organism-based; set-up: dose 15 mg/kg, route oral; conditions: in vivo
[10] = AUClast in CD1 mouse muscle assessed as baloxavir acid level at 15 mg/kg, po administered as single dose measured up to 24 hrs by LC-MS/MS analysis; assay type: ADME, organism-based, Muscle tissue; conditions: in vivo
[11] = Acute toxicity in CD1 mouse assessed as effect on body weight at 2000 mg/kg, po measured for 2 weeks; assay type: organism-based; conditions: in vivo, 336 h
[12] = Acute toxicity in CD1 mouse assessed as effect on spleen at 2000 mg/kg, po measured after 2 weeks by macroscopic analysis; assay type: organism-based; conditions: in vivo, 336 h
[13] = AUClast in CD1 mouse lung assessed as (12aR)-12-(Diphenylmethyl)-7-hydroxy-3,4,12,12a-tetrahydro-1H-[1,4]oxazino[3,4-c]pyrido[2,1-f ][1,2,4]triazine-6,8-dione level at 15 mg/kg, po administered as single dose by LC-MS/MS analysis; assay type: ADME, organism-based; conditions: in vivo
[14] = AUClast in CD1 mouse blood assessed as (12aR)-12-(Diphenylmethyl)-7-hydroxy-3,4,12,12a-tetrahydro-1H-[1,4]oxazino[3,4-c]pyrido[2,1-f ][1,2,4]triazine-6,8-dione level at 15 mg/kg, po administered as single dose measured up to 24 hrs by LC-MS/MS analysis; assay type: ADME, organism-based; conditions: in vivo
[15] = Half life in CD1 mouse kidney assessed as (12aR)-12-(Diphenylmethyl)-7-hydroxy-3,4,12,12a-tetrahydro-1H-[1,4]oxazino[3,4-c]pyrido[2,1-f ][1,2,4]triazine-6,8-dione level at 15 mg/kg, po administered as single dose measured up to 24 hrs by LC-MS/MS analysis; assay type: ADME, organism-based; conditions: in vivo
[16] = Ratio of AUClast in CD1 mouse kidney to plasma assessed as (12aR)-12-(Diphenylmethyl)-7-hydroxy-3,4,12,12a-tetrahydro-1H-[1,4]oxazino[3,4-c]pyrido[2,1-f ][1,2,4]triazine-6,8-dione level at 15 mg/kg, po administered as single dose measured up to 24 hrs by LC-MS/MS analysis; assay type: ADME, organism-based; conditions: other tissue
[17] = Elimination rate constant in CD1 mouse heart assessed as (12aR)-12-(Diphenylmethyl)-7-hydroxy-3,4,12,12a-tetrahydro-1H-[1,4]oxazino[3,4-c]pyrido[2,1-f ][1,2,4]triazine-6,8-dione level at 15 mg/kg, po administered as single dose measured up to 24 hrs by LC-MS/MS analysis; assay type: ADME, organism-based; conditions: in vivo
[18] = Cmax in CD1 mouse heart assessed as (12aR)-12-(Diphenylmethyl)-7-hydroxy-3,4,12,12a-tetrahydro-1H-[1,4]oxazino[3,4-c]pyrido[2,1-f ][1,2,4]triazine-6,8-dione level at 15 mg/kg, po administered as single dose measured up to 24 hrs by LC-MS/MS analysis; assay type: ADME, organism-based; set-up: dose 15 mg/kg, route oral; conditions: in vivo
[19] = AUCinfinity in CD1 mouse trachea assessed as (12aR)-12-(Diphenylmethyl)-7-hydroxy-3,4,12,12a-tetrahydro-1H-[1,4]oxazino[3,4-c]pyrido[2,1-f ][1,2,4]triazine-6,8-dione level at 15 mg/kg, po administered as single dose measured up to 24 hrs by LC-MS/MS analysis; assay type: ADME, organism-based; set-up: dose 15 mg/kg, route oral, time infinity; conditions: in vivo
[20] = Ratio of AUClast in CD1 mouse trachea to plasma assessed as (12aR)-12-(Diphenylmethyl)-7-hydroxy-3,4,12,12a-tetrahydro-1H-[1,4]oxazino[3,4-c]pyrido[2,1-f ][1,2,4]triazine-6,8-dione level at 15 mg/kg, po administered as single dose measured up to 24 hrs by LC-MS/MS analysis; assay type: ADME, organism-based; conditions: in vivo
[21] = MRTlast in CD1 mouse small intestine assessed as (12aR)-12-(Diphenylmethyl)-7-hydroxy-3,4,12,12a-tetrahydro-1H-[1,4]oxazino[3,4-c]pyrido[2,1-f ][1,2,4]triazine-6,8-dione level at 15 mg/kg, po administered as single dose measured up to 24 hrs by LC-MS/MS analysis; assay type: ADME, organism-based; conditions: in vivo
[22] = Elimination rate constant in CD1 mouse brain assessed as (12aR)-12-(Diphenylmethyl)-7-hydroxy-3,4,12,12a-tetrahydro-1H-[1,4]oxazino[3,4-c]pyrido[2,1-f ][1,2,4]triazine-6,8-dione level at 15 mg/kg, po administered as single dose measured up to 24 hrs by LC-MS/MS analysis; assay type: ADME, organism-based; conditions: in vivo
[23] = Tmax in CD1 mouse spleen assessed as (12aR)-12-(Diphenylmethyl)-7-hydroxy-3,4,12,12a-tetrahydro-1H-[1,4]oxazino[3,4-c]pyrido[2,1-f ][1,2,4]triazine-6,8-dione level at 15 mg/kg, po administered as single dose measured up to 24 hrs by LC-MS/MS analysis; assay type: ADME, organism-based; conditions: in vivo
[24] = Half life in CD1 mouse muscle assessed as (12aR)-12-(Diphenylmethyl)-7-hydroxy-3,4,12,12a-tetrahydro-1H-[1,4]oxazino[3,4-c]pyrido[2,1-f ][1,2,4]triazine-6,8-dione level at 15 mg/kg, po administered as single dose measured up to 24 hrs by LC-MS/MS analysis; assay type: ADME, organism-based, Muscle tissue; conditions: in vivo
[25] = AUClast in CD1 mouse muscle assessed as (12aR)-12-(Diphenylmethyl)-7-hydroxy-3,4,12,12a-tetrahydro-1H-[1,4]oxazino[3,4-c]pyrido[2,1-f ][1,2,4]triazine-6,8-dione level at 15 mg/kg, po administered as single dose measured up to 24 hrs by LC-MS/MS analysis; assay type: ADME, organism-based, Muscle tissue; conditions: in vivo
[26] = Ratio of free drug level in CD1 mouse blood assessed as (12aR)-12-(Diphenylmethyl)-7-hydroxy-3,4,12,12a-tetrahydro-1H-[1,4]oxazino[3,4-c]pyrido[2,1-f ][1,2,4]triazine-6,8-dione level at 20 mg/kg, po to EC50 for antiviral activity against Influenza A/California/04/2009 (H1N1)pdm09 infected in MDCK cells; assay type: ADME, organism-based; conditions: in vivo

## COC(=O)OCOc1c2n(ccc1=O)N([C@@H]1c3ccccc3SCc3c1ccc(F)c3F)[C@@H]1COCCN1C2=O [BALOXAVIR MARBOXIL]
[1]
  Cmax: 88.5 ng/mL
[2]
  t1/2: 2.57 h
[3]
  Kel: 0.21 h⁻¹
[4]
  t1/2: 3.26 h
[5]
  Cmax: 2998 ng/g
[6]
  AUC: 21287 ng·h/g
[7]
  Tmax: 2 h
[8]
  Cmax: 21.9 ng/g
[9]
  Cmax: 388 ng/g
[10]
  AUClast: 4716 ng·h/g

## COC(=O)OCOc1c2n(ccc1=O)N(C(c1ccccc1)c1ccccc1)[C@@H]1COCCN1C2=O
[11]
  Activity: Non-Toxic
[12]
  Activity: Non-Toxic
[13]
  AUClast: 11923 ng·h/g
[14]
  AUClast: 2746 ng·h/g
[15]
  t1/2: 2.57 h
[16]
  Ratio AUC: 5.5
[17]
  Kel: 0.41 h⁻¹
[18]
  Cmax: 2537 ng/g
[19]
  AUC: 10875 ng·h/g
[20]
  Ratio AUC: 3.22
[21]
  MRTlast: 1.28 h
[22]
  Kel: 0.08 h⁻¹
[23]
  Tmax: 0.5 h
[24]
  t1/2: 1.71 h
[25]
  AUClast: 7425 ng·h/g
[26]
  Ratio: 18

From ChEMBL document CHEMBL4622979, “Non-rigid Diarylmethyl Analogs of Baloxavir as Cap-Dependent Endonuclease Inhibitors of Influenza Viruses” (J Med Chem, 2020)
